Values of other authors in publication PMC7520419 (The AAPS Journal, 2020).
Counter-ions that a name gives are not always drawn.

Conditions: clinically observed PK change (AUC, Cmax) fed vs fasted; compiled by literature search; cited from earlier work

SMILES | Food Effect
CS(=O)(=O)CCNCc1ccc(-c2ccc3ncnc(Nc4ccc(OCc5cccc(F)c5)c(Cl)c4)c3c2)o1 [Lapatinib] | Positive (positive if the ratio of fed > fasted)
C[C@@H](Oc1cc(-c2cnn(C3CCNCC3)c2)cnc1N)c1c(Cl)ccc(F)c1Cl [Crizotinib] | None (none if no significant change in AUC and Cmax with food)
Nc1ccn([C@H]2CC[C@@H](CO)O2)c(=O)n1 [Zalcitabine] | None (none if no significant change in AUC and Cmax with food)
Cc1c(OCC(F)(F)F)ccnc1C[S+]([O-])c1nc2ccccc2[nH]1 (centres unmarked) [Lansoprazole] | None (none if no significant change in AUC and Cmax with food)
N[C@@H](CC(=O)N1CCn2c(nnc2C(F)(F)F)C1)Cc1cc(F)c(F)cc1F [Sitagliptin] | None (none if no significant change in AUC and Cmax with food)
CC1COc2c(N3CCN(C)CC3)c(F)cc3c(=O)c(C(=O)O)cn1c23 (centres unmarked) [Ofloxacin] | None (Absorption delayed but extent not substantially affected) (none if no significant change in AUC and Cmax with food)
CCc1nn(CCCN2CCN(c3cccc(Cl)c3)CC2)c(=O)n1CCOc1ccccc1 [Nefazodone hydrochloride] | Negative (negative if ratio fasted > fed)
O=[N+]([O-])O[C@@H]1CO[C@H]2[C@@H]1OC[C@@H]2O [Isosorbide Mononitrite] | None (none if no significant change in AUC and Cmax with food)
CC(C)(C)NC(=O)[C@@H]1C[C@@H]2CCCC[C@@H]2CN1C[C@@H](O)[C@H](Cc1ccccc1)NC(=O)[C@H](CC(N)=O)NC(=O)c1ccc2ccccc2n1 [Saquinavir] | Positive (positive if the ratio of fed > fasted)
CCC[C@H](NC(=O)[C@@H]1[C@H]2CCC[C@H]2CN1C(=O)[C@@H](NC(=O)[C@@H](NC(=O)c1cnccn1)C1CCCCC1)C(C)(C)C)C(=O)C(=O)NC1CC1 [Telapravir] | Positive (positive if the ratio of fed > fasted)
C#Cc1cccc(Nc2ncnc3cc(OCCOC)c(OCCOC)cc23)c1 [Erlotinib] | Positive (positive if the ratio of fed > fasted)
O=C1CN=C(c2ccccn2)c2cc(Br)ccc2N1 [Bromazepam] | Negative (negative if ratio fasted > fed)
CCCCCOC(=O)Nc1nc(=O)n([C@@H]2O[C@H](C)[C@@H](O)[C@H]2O)cc1F [Capecitabine] | Negative (negative if ratio fasted > fed)
Nc1nc(O)c2ncn(COC(CO)CO)c2n1 [Ganciclovir] | None (none if no significant change in AUC and Cmax with food)
CC(C)(C(=O)O)c1ccc(C(O)CCCN2CCC(C(O)(c3ccccc3)c3ccccc3)CC2)cc1 (centres unmarked) [Fexofenadine] | Negative (negative if ratio fasted > fed)
CC(=O)N(CCC(CCN1CCCCC1)(C(N)=O)c1ccccc1Cl)C(C)C (centres unmarked) [Bidisomide] | Negative (negative if ratio fasted > fed)
CCCCC(C)(O)C/C=C/[C@H]1[C@H](O)CC(=O)[C@@H]1CCCCCCC(=O)OC (mixture of isomers) [Misoprostol] | None (none if no significant change in AUC and Cmax with food)
CNC(=O)c1cc(Oc2ccc(NC(=O)Nc3ccc(Cl)c(C(F)(F)F)c3)c(F)c2)ccn1 [Regorafenib] | Positive (positive if the ratio of fed > fasted)
NS(=O)(=O)c1cc2c(cc1Cl)NCNS2(=O)=O [Hydrochlorothiazide] | None (none if no significant change in AUC and Cmax with food)
O=C1C(O)=C([C@H]2CC[C@H](c3ccc(Cl)cc3)CC2)C(=O)c2ccccc21 [Atovaquone] | Positive (positive if the ratio of fed > fasted)

SMILES | Food Effect
CC(C)Cn1cnc2c(N)nc3ccccc3c21 [Imiquimod] | None (none if no significant change in AUC and Cmax with food)
CC(C)(C)c1nc(-c2cccc(NS(=O)(=O)c3c(F)cccc3F)c2F)c(-c2ccnc(N)n2)s1 [Tafinlar] | Negative (negative if ratio fasted > fed)
CCCCCCCNC(=O)Oc1ccc2c(c1)[C@]1(C)CCN(C)[C@@H]1N2C [Eptastigmine] | Negative (negative if ratio fasted > fed)
CC(C)OC(=O)C(C)(C)Oc1ccc(C(=O)c2ccc(Cl)cc2)cc1 [Fenofibrate] | Positive (positive if the ratio of fed > fasted)
Cc1c(C)c2c(c(C)c1O)CCC(C)(COc1ccc(CC3SC(=O)NC3=O)cc1)O2 (centres unmarked) [Troglitazone] | Positive (positive if the ratio of fed > fasted)
COc1cc(C)c(/C=C/C(C)=C/C=C/C(C)=C/C(=O)O)c(C)c1C [Acitretin] | Positive (positive if the ratio of fed > fasted)
Cc1c(C(=O)Nc2ccc(N3C[C@@H](C)O[C@@H](C)C3)nc2)cccc1-c1ccc(OC(F)(F)F)cc1 [Sonidegib] | Positive (positive if the ratio of fed > fasted)
O=C1Nc2ccc(Cl)cc2[C@@](C#CC2CC2)(C(F)(F)F)O1 [Efavirenz] | Positive (positive if the ratio of fed > fasted)
Cc1ccc(-c2cc(C(F)(F)F)nn2-c2ccc(S(N)(=O)=O)cc2)cc1 [Celecoxib] | Slightly positive
O=c1[nH]cnc2c1ncn2[C@H]1CC[C@@H](CO)O1 [Didanosine] | Negative (negative if ratio fasted > fed)
CCCS(=O)(=O)Nc1ccc(F)c(C(=O)c2c[nH]c3ncc(-c4ccc(Cl)cc4)cc23)c1F [Vemurafenib] | Positive (positive if the ratio of fed > fasted)
C=CC1=C(C(=O)O)N2C(=O)[C@@H](NC(=O)/C(=N\O)c3csc(N)n3)[C@H]2SC1 [Cefdinir] | None (none if no significant change in AUC and Cmax with food)
Cc1onc(-c2ccccc2)c1-c1ccc(S(N)(=O)=O)cc1 [Valdecoxib] | None (none if no significant change in AUC and Cmax with food)
CNC(=O)c1ccccc1Sc1ccc2c(/C=C/c3ccccn3)n[nH]c2c1 [Axitinib] | None (none if no significant change in AUC and Cmax with food)
CCCSc1ccc2nc(NC(=O)OC)[nH]c2c1 [Albendazole] | Positive (positive if the ratio of fed > fasted)
O=C(O[C@H]1C[C@H]2CC[C@@H](C1)[N+]21CCCC1)C(O)(c1ccccc1)c1ccccc1 [Trospium Chloride] | Negative (negative if ratio fasted > fed)
CC[C@@H]([C@H](C)O)n1ncn(-c2ccc(N3CCN(c4ccc(OC[C@@H]5CO[C@@](Cn6cncn6)(c6ccc(F)cc6F)C5)cc4)CC3)cc2)c1=O [Posaconazole] | Positive (positive if the ratio of fed > fasted)
CCCCc1oc2ccccc2c1C(=O)c1cc(I)c(OCCN(CC)CC)c(I)c1 [Amiodarone] | Positive (positive if the ratio of fed > fasted)
COc1cccc(CCc2ccccc2OCC(CN(C)C)OC(=O)CCC(=O)O)c1 (centres unmarked) [Sarpogrelate] | Negative (negative if ratio fasted > fed)
NC(=O)c1ncn([C@@H]2O[C@H](CO)[C@@H](O)[C@H]2O)n1 [Ribavirin] | Positive (positive if the ratio of fed > fasted)

SMILES | Food Effect
CC(O)(CS(=O)(=O)c1ccc(F)cc1)C(=O)Nc1ccc(C#N)c(C(F)(F)F)c1 (centres unmarked) [Bicalutamide] | None (none if no significant change in AUC and Cmax with food)
CC(C)c1c(C(=O)Nc2ccccc2)c(-c2ccccc2)c(-c2ccc(F)cc2)n1CC[C@@H](O)C[C@@H](O)CC(=O)O [Atorvastatin] | None (none if no significant change in AUC and Cmax with food)
O=P(O)(O)C(Cl)(Cl)P(=O)(O)O [Clodronate] | Negative (negative if ratio fasted > fed)
NNc1nncc2ccccc12 [Hydralazine] | Negative (negative if ratio fasted > fed)
COc1cc2nc(N(C)CCCNC(=O)C3CCCO3)nc(N)c2cc1OC (centres unmarked) [Alfuzosine] | Positive (positive if the ratio of fed > fasted)
CN(C)CCc1c[nH]c2ccc(C[C@H]3COC(=O)N3)cc12 [Zolmitriptan] | None (none if no significant change in AUC and Cmax with food)
O=C1CCc2ccc(OCCCCN3CCN(c4cccc(Cl)c4Cl)CC3)cc2N1 [Aripiprazole] | None (none if no significant change in AUC and Cmax with food)
CC1=C(/C=C/C(C)=C/C=C/C(C)=C\C(=O)O)C(C)(C)CCC1 [Isotretinoin] | Positive (positive if the ratio of fed > fasted)
Nc1nc(NC2CC2)c2ncn([C@H]3C=C[C@@H](CO)C3)c2n1 [Abacavir sulfate] | None (none if no significant change in AUC and Cmax with food)
CC(C)c1nc(CN(C)C(=O)N[C@H](C(=O)N[C@@H](Cc2ccccc2)C[C@H](O)[C@H](Cc2ccccc2)NC(=O)OCc2cncs2)C(C)C)cs1 [Ritonavir] | None (none if no significant change in AUC and Cmax with food)
CC(C)C[C@H]1C(=O)N2CCC[C@H]2[C@]2(O)O[C@](NC(=O)[C@@H]3C=C4c5cccc6[nH]c(Br)c(c56)C[C@H]4N(C)C3)(C(C)C)C(=O)N12 [Bromocriptine] | None (none if no significant change in AUC and Cmax with food)
N#CC[C@H](C1CCCC1)n1cc(-c2ncnc3[nH]ccc23)cn1 [Ruxolitinib] | None (none if no significant change in AUC and Cmax with food)
O=C1Cc2cc(CCN3CCN(c4nsc5ccccc45)CC3)c(Cl)cc2N1 [Ziprasidone hydrochloride] | Positive (positive if the ratio of fed > fasted)
CS(=O)(=O)c1ccc(C2=C(c3ccccc3)C(=O)OC2)cc1 [Rofecoxib] | None (none if no significant change in AUC and Cmax with food)
CN[C@H]1CC[C@@H](c2ccc(Cl)c(Cl)c2)c2ccccc21 [Sertraline] | None (none if no significant change in AUC and Cmax with food)
C#C[C@]1(O)CC[C@H]2[C@@H]3CCc4cc(O)ccc4[C@H]3CC[C@@]21C [Ethinyl estradiol] | None (none if no significant change in AUC and Cmax with food)
CSc1nc2cc(Cl)c(Oc3cccc(Cl)c3Cl)cc2[nH]1 [Triclabendazole] | Positive (positive if the ratio of fed > fasted)
CCOc1ccccc1OCCN[C@H](C)Cc1ccc(OC)c(S(N)(=O)=O)c1 [Tamsulosin hydrochloride] | Negative (negative if ratio fasted > fed)

Same assay, conditions: ref drug label; cited from earlier work

SMILES | food effect (FE) direction
NS(=O)(=O)c1cc(C(=O)O)c(NCc2ccco2)cc1Cl [Furosemide] | negative FE
